The results in this text go back to ChEMBL document CHEMBL3593163, “Synthesis and Characterization of 5-Hydroxy-2-(2-phenylethyl)chromone (5-HPEC) and Its Analogues as Non-nitrogenous 5-HT2B Ligands” (J Nat Prod, 2015).

SMILES strings stand for the structures.

Assay [1] deals with 5-hydroxytryptamine receptor 2A (Homo sapiens) (UniProt P28223). Put plainly: Displacement of [3H]ketanserin from human 5HT2A receptor expressed in HEKT cells membranes at 10 uM. The format is cell membranes.
The target of assay [2] is T1, 5-hydroxytryptamine receptor 2C (Homo sapiens) (UniProt P28335).
T1 sequence (whole entry): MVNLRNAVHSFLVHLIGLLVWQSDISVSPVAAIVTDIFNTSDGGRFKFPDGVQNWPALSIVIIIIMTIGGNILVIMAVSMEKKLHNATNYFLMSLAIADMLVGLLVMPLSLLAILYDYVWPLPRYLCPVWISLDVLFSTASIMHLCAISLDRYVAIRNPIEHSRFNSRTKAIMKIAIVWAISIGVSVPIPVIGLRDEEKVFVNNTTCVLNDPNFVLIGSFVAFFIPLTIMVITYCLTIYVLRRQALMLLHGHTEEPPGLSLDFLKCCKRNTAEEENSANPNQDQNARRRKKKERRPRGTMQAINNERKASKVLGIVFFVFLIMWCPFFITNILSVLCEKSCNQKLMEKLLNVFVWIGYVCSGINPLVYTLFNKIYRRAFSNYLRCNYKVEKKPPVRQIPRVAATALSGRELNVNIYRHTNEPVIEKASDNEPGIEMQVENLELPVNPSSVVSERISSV
Put plainly: Displacement of [3H]mesulergine from human 5HT2C receptor expressed in Flp-IN HEK cell membranes at 10 uM. Conditions: HEK293.

In assay [3] the target is 5-hydroxytryptamine receptor 2B (Homo sapiens) (UniProt P41595). Put plainly: Displacement of [3H]LSD from human 5HT2B receptor expressed in stable HEK cells membranes at 10 uM. Format: cell membranes. Particulars: HEK293. Background: In a radioligand displacement assay an active substance lowers the binding of a labelled ligand.
For assay [4] the target is unchanged. Put plainly: Agonist activity at human 5HT2B receptor expressed in Flp-IN HEK cells at 10 um by calcium mobilization assay relative to 5-HT. Format: functional, cell-based. Particulars: HEK293. For orientation: Calcium flux is commonly read through the fluorescence of an indicator in the cells.
Assay [5] has the same target. Put plainly: Potency index, ratio of pKi for 5-HPEC to pKi for test compound against human 5HT2B receptor expressed in stable HEK cells membranes. Particulars: HEK293. Format: cell-based.
For assay [6] the target is unchanged. Put plainly: Antagonist activity against human 5HT2B receptor expressed in Flp-IN HEK cells assessed as inhibition of 5-HT-induced response at 10 uM by calcium mobilization assay. Conditions: HEK293. The format is functional, cell-based.

5-hydroxytryptamine receptor 2A (Homo sapiens), sequence (P28223 whole entry): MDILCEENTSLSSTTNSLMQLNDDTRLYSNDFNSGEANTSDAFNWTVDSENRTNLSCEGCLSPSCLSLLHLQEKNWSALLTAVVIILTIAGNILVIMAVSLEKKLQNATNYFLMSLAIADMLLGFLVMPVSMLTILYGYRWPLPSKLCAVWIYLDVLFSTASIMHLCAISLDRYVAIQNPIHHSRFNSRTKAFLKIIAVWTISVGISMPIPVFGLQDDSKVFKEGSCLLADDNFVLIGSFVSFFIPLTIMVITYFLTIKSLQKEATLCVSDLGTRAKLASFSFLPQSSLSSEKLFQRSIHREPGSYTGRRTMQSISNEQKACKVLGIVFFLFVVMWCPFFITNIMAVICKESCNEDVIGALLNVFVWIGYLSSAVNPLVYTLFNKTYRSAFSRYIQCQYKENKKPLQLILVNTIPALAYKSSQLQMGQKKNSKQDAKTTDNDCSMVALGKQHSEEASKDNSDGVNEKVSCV
5-hydroxytryptamine receptor 2B (Homo sapiens), sequence (P41595 whole entry): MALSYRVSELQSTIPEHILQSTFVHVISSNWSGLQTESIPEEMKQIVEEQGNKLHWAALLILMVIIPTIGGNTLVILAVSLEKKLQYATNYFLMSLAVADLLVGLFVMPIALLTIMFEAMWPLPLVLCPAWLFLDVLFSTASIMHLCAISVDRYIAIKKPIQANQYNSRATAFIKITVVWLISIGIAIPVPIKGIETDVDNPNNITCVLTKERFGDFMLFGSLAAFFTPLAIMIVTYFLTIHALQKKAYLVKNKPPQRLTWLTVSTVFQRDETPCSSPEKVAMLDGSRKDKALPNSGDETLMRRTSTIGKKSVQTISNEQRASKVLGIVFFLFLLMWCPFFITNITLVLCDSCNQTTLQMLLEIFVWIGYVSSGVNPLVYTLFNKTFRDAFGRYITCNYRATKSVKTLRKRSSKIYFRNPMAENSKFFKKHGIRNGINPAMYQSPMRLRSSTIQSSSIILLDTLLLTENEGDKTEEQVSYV

As a reminder, the inhibition is the drop in the measured response relative to a control, in per cent. `O=c1cc(CCc2ccccc2)oc2cc(O)ccc12`: the inhibition in assay [1] worked out at 35.5%; in assay [2] it was 33.7%; in assay [3] it was 34.2%.

`O=c1cc(COc2ccccc2)oc2cccc(O)c12`: the inhibition in assay [2] turned out to be 7%.

As to `O=c1cc(CCc2ccccc2O)oc2cc(O)ccc12`, the inhibition in assay [1] was 47.9%; in assay [2], 44%; in assay [3] it was 16.6%.

For the compound `O=c1cc(CCc2ccc(O)cc2)oc2cc(O)ccc12`, the values for the inhibition in assay [1], in assay [2] and in assay [3] were 33.3%, 53.1% and 40.8%, respectively.

As to `O=c1cc(COCc2ccccc2)oc2cccc(O)c12`, the figures for the inhibition in assay [1], in assay [2] and in assay [3] were 3.2%, 42.1% and 77.7%, respectively.

For `O=c1cc(CCc2cccc(O)c2)oc2cc(O)ccc12`, the inhibition in assay [1] worked out at 23.2%; in assay [2] it was 0%; in assay [3] it was 25.3%.

Regarding `O=c1cc(CCc2ccccc2O)oc2cccc(O)c12`, the inhibition was determined as 24.3% in assay [1], 23.8% in assay [2] and 12.8% in assay [3].

As for `O=c1cc(CCc2cccc(O)c2)oc2cccc(O)c12`, the inhibition in assay [1] came to 39%; in assay [2], 30.4%; in assay [3], 76.3%.

`O=c1cc(CCc2ccco2)oc2cccc(O)c12`: the inhibition is 12.4% in assay [1], 24.2% in assay [2] and 68.8% in assay [3].

As to `O=c1cc(CCCc2ccccc2)oc2cccc(O)c12`, in assay [4], the Efficacy is 0.23%. Besides, in assay [5], the Ratio was 10. Further, in assay [6], the inhibition came out at 20.5%.
